What was measured:
[1] = tested on: γH2AX in HeLa cells; assay: γH2AX expression after irradiation (Western blot densitometry); assay type: cell-based, human; conditions: 40 μM 20 h then 6 Gy IR, harvested 1 h after irradiation
Protocol: Chemotherapeutics are often used in combination with external beam ionising radiation in the treatment of cancers and many drugs that inhibit DNA replication are potent radiosensitizers. To examine the possibility that 1 may function as a radiosensitizer, HeLa cells were pre-treated with 1 for 20 h before irradiation (0–6 Gy ionising irradiation (IR); ^137Cs-γ-rays; dose rate = 0.809 Gy min^−1). After further incubation for 4 h with the complex, the relative impact on cell viability was assessed by clonogenic survival. Complex 2, which achieves its impact on cell proliferation through non-DNA damage-based autophagy, was included in parallel for comparison. […] The formation of γH2AX is an early response to IR-induced DSB generation and may provide an indication of DNA damage levels. […]
Figure 6 [Ru(dppz)2(PIP)]^2+ sensitises human cancer cells to external beam ionising radiation. […] Survival fraction (S. F.) as a result of each treatment was determined by clonogenic assay and is presented as the mean +/− SD of two independent experiments where each experiment was performed in triplicate. […] Cells were harvested 1 h after irradiation and lysates analysed by Western blotting (left). γH2AX levels were measured by densitometry relative to β-actin loading controls and normalised to DMSO + 6 Gy data (right). […]

[2] = tested on: cleaved caspase-3 and LC3-II in HeLa cells; assay: Western blotting for cell death markers (cleaved caspase 3, LC3-II); assay type: cell-based, human; conditions: 24 h, concentrations centred on IC50
Protocol: Figure 2 Complexes 1 and 2 are internalised by cancer cells and impact proliferation. (a) Effect of 40 μM 1 or 2 (0–72 h incubation time) on numbers of viable (left) and non-viable (right, data expressed as % total cells, independent of viability) HeLa cells (in triplicate, +/− SD). […] (c) Intracellular Ru levels of HeLa cells treated with 1 or 2 (40 μM, 24 h), as determined by ICP-MS. (d) Ru levels within isolated subcellular fractions of HeLa cells treated with 1 or 2 (40 μM, 24 h). Fractions: C = cytoplasm and cytoskeleton, M = membrane, N = nucleus. Successful fractionation confirmed by immunoblotting (right). All ICP-MS data were normalised to protein content of the corresponding fraction and are the mean of two independent experiments +/− SEM. (e) Epifluorescence microscopy of HeLa cells treated with 1 or 2 (40 μM, 24 h) showing intracellular MLCT emission. Co-staining with nuclear stain DAPI included. Scale bars = 20 μm.
Cells were incubated as stated, washed with cold PBS and lysed in RIPA (radioimmunoprecipitation assay) buffer containing protease inhibitors (10 μg/ml leupeptin, 2 μg/ml pepstatin, 50 μg/ml antipain, 2 μg/ml aprotinin, 20 μg/ml chyprostatin, 2 μg/ml benzamidine, 1 mM phenylmethanesulfonyl fluoride) and phosphatase inhibitors (50 mM NaF, 1 mM Na3VO4 and 20 mM β-glycerophosphate). Aliquots of cell lysates (5–20 μg total protein) were resolved by NuPAGE® 4–12% Bis-Tris gels and LDS-PAGE, transferred onto nitrocellulose membrane and probed with primary antibodies in 5% BSA (bovine serum albumin) solutions. Reactions were visualised with a suitable secondary antibody conjugated with horseradish peroxidase (Thermo). Pierce ECL (Thermo) or WesternSurePREMIUM (Li-Cor) chemiluminescent substrates with X-ray development (Fuji medical film and Optimax 2010 processor) or digital analysis (LiCor C-Digit Blot Scanner) were used to visualise protein expression. Li-Cor Image Studio Lite software was used for densitometry data acquisition.

[3] = tested on: primary human foreskin fibroblasts (HFF); assay: MTT proliferation assay, HFF; assay type: cell-based; conditions: 24 h proliferation assay
Protocol: (§1) (LC3 = Microtubule-associated protein light chain 3) (Fig. 2b, bottom).
(§2) Cells were seeded in 96 well plates at 20,000 cells/well, allowed to proliferate for 24 h before treatment as described in the main text. 0.5 mg ml^−1 MTT (thiazolyl blue tetrazolium bromide) dissolved in serum-free media was added for 60 minutes and the formazan product eluted using acidified isopropanol. The absorbance at 540 nm was quantified by plate reader (reference wavelength 650 nm). The metabolic activity of the cell population was determined as a percentage of a negative (solvent) control.

[4] = tested on: MCF7 breast cancer cells; assay: MTT proliferation assay, MCF7; assay type: cell-based, human; conditions: 24 h proliferation assay
Protocol: as §1, §2

[5] = octanol/water partition coefficient (Log P)
[6] = tested on: replication forks in HeLa cells; assay: DNA fibre assay (replication fork progression); assay type: cell-based, human; conditions: for median IdU tract length: 40 μM added during 30 min IdU pulse, mock 6.10 μm
Protocol: Replication tracks were sequentially pulse-labelled with CldU (red) and IdU (green) and the addition of 1 or 2 during the second (IdU) pulse enabled us to evaluate the immediate effect of each complex on individual replication fork progression in S phase cells (Figs 3a and S12).
DNA fibre assays and immunofluorescent staining were performed as described elsewhere, employing sequential CldU and IdU incubation times of 30 mins each. The second nucleotide (IdU) was incubated in the presence of 1, 2 (40 μM) or a DMSO (0.5%) control. Fibres were visualised with a Leica DMRB microscope with a DFC360FX camera. Lengths of CldU- and IdU-labeled tracts were measured by ImageJ software. Statistical analysis was performed using GraphPad Prism software using unpaired t-test.

**Q.** Which “γH2AX levels compared to IR alone” value [1] does the source give for [Ru+2].c1ccc(-c2nc3c4cccnc4c4ncccc4c3[nH]2)cc1.c1ccc2nc3c4cccnc4c4ncccc4c3nc2c1.c1ccc2nc3c4cccnc4c4ncccc4c3nc2c1 [Complex 1, [Ru(dppz)2(PIP)]^2+] here?
**A.** The value was “approximately two-fold greater”.

**Q.** And the “generation of apoptosis marker cleaved caspase-3” value [2]?
**A.** Its value is “no generation of the apoptosis marker cleaved caspase-3”.

**Q.** And the “levels of autophagy marker LC3-II” value [2]?
**A.** Its value is “no detectable increase”.

**Q.** What about the IC50 [3] of the same compound?
**A.** The IC50 was > 100 µM.

**Q.** And the IC50 [4]?
**A.** Its IC50 is 28 µM.

**Q.** And the “Log P” value [5]?
**A.** Its value is 0.403.

**Q.** What about the “median IdU tract length” value [6] of the same compound?
**A.** The value was 2.18 μm.

**Q.** What about the “stalled replication forks (red tract only), of total replication forks” value ([6]; 40 μM during IdU pulse, mock 7.5 +/− 1%) of the same compound?
**A.** Its value is 17 +/− 1%.

**Q.** Which results are given for Oc1ccc(-c2nc3c4cccnc4c4ncccc4c3[nH]2)cc1.[Ru+2].c1ccc2nc3c4cccnc4c4ncccc4c3nc2c1.c1ccc2nc3c4cccnc4c4ncccc4c3nc2c1 [Complex 2, [Ru(dppz)2(p-HPIP)]^2+]?
**A.** γH2AX levels compared to IR alone [1]: no such increase in γH2AX expression; generation of apoptosis marker cleaved caspase-3 [2]: no generation of the apoptosis marker cleaved caspase-3; levels of autophagy marker LC3-II [2]: greater in cells treated with 2 at IC50 concentrations or greater compared to untreated; IC50 [3]: > 100 µM; IC50 [4]: 12 µM; Log P [5]: 0.076; median IdU tract length [6]: 6.24 μm; impact on replication fork progression ([6]; 40 μM during IdU pulse): negligible impact on replication fork progression

From publication PMC4997316, “A ruthenium polypyridyl intercalator stalls DNA replication forks, radiosensitizes human cancer cells and is enhanced by Chk1 inhibition” (Scientific Reports, 2016)
